# What was measured:
# [1] = system: cholesterol biosynthesis in Hep G2 cells; experiment: Test B-1: Inhibition of cholesterol biosynthesis in culture cells (Hep G2); type: cell-based; conditions: for inhibition at 1 µM: 1.0 × 10^-6 mol/l, Hep G2 cells, read-out: Inhibitory activities at a concentration of 1.0 × 10^-6 mol/l by Test B-1 (Relative activities); for Relative activities by Test B-1: relative to CS-514 = 1 (Test B-1)
# Protocol: Hep G2 cells at over 5th passage were seeded to 12 well plates and incubated with Dulbecco's modified Eagle (DME) medium containing 10% of fetal bovine serum (FBS) at 37° C., 5% CO2 until cells were confluent for about 7 days. Cells were exposed to the DME medium contaiing 5% of lipoprotein deficient serum (LpDS) prepared by ultracentrifugation method for over 24 hours. Medium was changed to 0.5 ml of fresh 5% LpDS containing DME before assay and 10 μl of test compound solution dissolved in water or DMSO were added. 0.2 μCi of [2-^14 C]sodium acetate (20 μl ) was added at 0 hr(B-1) or 4 hrs(B-2) after addition of compounds. After 4 hrs further incubation with [2-^14 C]sodium acetate, medium was removed and cells were washed with phosphate buffered saline (PBS) chilled at 4° C. Cells were scraped with rubber policeman and collected to tubes with PBS and digested with 0.2 ml of 0.5 N KOH at 37° C. Aliquot of digestion was used for protein analysis and remaining was saponified with 1 ml of 15% EtOH-KOH at 75° C. for 1 hour. Nonsaponifiable lipids were extracted with petroleum ether and ^14 C radioactivity was counted. Counts were revised by cell protein and indicated with DPM/mg protein. Inhibitory activity of compounds was indicated with IC50. With respect to the compounds of the present invention, the inhibitory activities against the cholesterol biosynthesis in which HMG-CoA reductase serves as a rate limiting enzyme, were measured by the above Test A and B.
# [2] = system: cholesterol biosynthesis; experiment: Test A: Inhibition of cholesterol biosynthesis from acetate in vitro; type: biochemical, male Wistar rat; conditions: relative to CS-514 = 1 (Test A)
# Protocol: Enzyme solution was prepared from liver of male Wistar rat billialy connulated and discharged bile for over 24 hours. Liver was cut out at mid-dark and microsome and supernatant fraction which was precipitable with 40-80% of solution of ammonium sulfate (sup fraction) were prepared from liver homogenate according to the modified method of Knauss et. al.; Kuroda, M., et. al., Biochim. Biophys. Acta, 489, 119 (1977). For assay of cholesterol biosynthesis, microsome (0.1 mg protein) and sup fraction (1.0 mg protein) were incubated for 2 hours at 37° C. in 200 μl of the reaction mixture containing ATP; 1 mM, Glutathione; 6 mM, Glucose-1-phosphate; 10 mM, NAD; 0.25 mM, NADP; 0.25 mM, CoA; 0.04 mM and 0.2 mM [2-^14 C]sodium acetate (0.2 μCi) with 4 μl of test compound solution dissolved in water or dimethyl sulfoxide. To stop reaction and saponify, 1 ml of 15% EtOH-KOH was added to the reactions and heated at 75° C. for 1 hour. Nonsaponifiable, lipids were extracted with petroleum ether and incorporated ^14 C radioactivity was counted. Inhibitory activity of compounds was indicated with IC50.
# With respect to the compounds of the present invention, the inhibitory activities against the cholesterol biosynthesis in which HMG-CoA reductase serves as a rate limiting enzyme, were measured by the above Test A and B. The results are shown in Tables 2, 3-1 and 3-2.
# The relative activities of the compounds of the present invention based on the activities of CS-514 by Test A being evaluated to be 1, are shown in Table 2.
# [3] = system: cholesterol biosynthesis; experiment: Test C: Inhibition of cholesterol biosynthesis in vivo; design: species or system Male Sprague-Dawley rats; conditions: 0.2 mg/kg, oral administration, rats
# Protocol: Male Sprague-Dawley rats weighing about 150 g were fed normal Purina chow diet and water ad libitum, and exposed to 12 hours light/12 hours dark lighting pattern (2:00 PM-2:00 AM dark) prior to use for in vivo inhibition test of cholesterol biosynthesis. Animals were separated groups consisting of five rats as to be average mean body weight in each groups. Test compounds at dosage of 0.02-0.2 mg/kg body weight (0.4 ml/100 g body weight), were dissolved in water or suspended in 0.5% methyl cellulose and orally administered at 2-3 hours before mid-dark (8:00 PM), while cholesterol biosynthesis reaches to maximum in rats. As control, rats were orally administered only water or vehicle. At 90 minutes after sample administration, rats were injected intraperitoneally with 10 μCi of [2-^14 C]sodium acetate at volume of 0.2 ml per one. 2 Hours later, blood samples were obtained and serum were separated immediately. Total lipids were extracted according to the method of Folch et al. and saponified with EtOH-KOH. Nonsaponifiable lipids were extracted with petroleum ether and radio activity incorporated into nonsaponifiable lipids was counted. Inhibitory activity was indicated as percent decrease of counts in testing groups (DPM/2 ml serum/2 hours) from that in control group.
# [4] = Test D: Acute toxicity; conditions: mouse, in vivo, 1000 mg/kg; 1,000 mg/kg oral, 0.5% CMC suspension, ICR male mice, after seven days
# Protocol: A 0.5% CMC suspension of a test compound was orally administered to ICR male mice (group of three mice). The acute toxicity was determined based on the mortality after seven days. With compound I 5-4 and I-5-6 of the present ivnention, the mortality was 0% even when they were orally administered in an amount of 1,000 mg/kg, respectively.
SMILES,"inhibition at 1 µM ([1]; Homo sapiens, HepG2)",Relative activities by Test A [2],other results
CCOC(=O)CC(O)CC(O)/C=C/c1c(C(C)C)nc2cc(-c3ccccc3)nn2c1-c1ccc(F)cc1 (stereo not shown) [Compound I-1-3],66.1%,,Relative activities by Test B-1 [1]: 29.5
Cc1nn2c(-c3ccc(F)cc3)c(/C=C/C(O)CC(O)CC(=O)O)c(C3CC3)nc2c1C (stereo not shown) [Compound I-5-5],55.3%,0.29,
"CCC(C)C(=O)OC1CC(O)C=C2C=CC(C)C(CCC(O)CC(O)CC(=O)O)C21 (stereo not shown) [CS-514, reference compound]",,,"IC50 ([1]; Homo sapiens, HepG2, Test B-1, Hep G2 cells, [2-14C]sodium acetate added at 0 hr, read-out: IC50 in Test B1): 3.66 µM; percent decrease of counts relative to control group [3]: 34%"
CC(C)c1nc2c3c(nn2c(-c2ccc(F)cc2)c1/C=C/C(O)CC(O)CC(=O)O)CCCC3 (stereo not shown) [Compound I-5-9],,0.13,
CC(C)c1nc2cc(C(C)(C)C)nn2c(-c2ccc(F)cc2)c1/C=C/C(O)CC(O)CC(=O)O (stereo not shown) [Compound I-5-2],44.6%,0.09,
"Cc1cc2nc(C(C)C)c(/C=C/C(O)CC(O)CC(=O)O)c(-c3ccc(F)cc3)n2n1 (stereo not shown) [Compound I-5-1, Sodium (E)-7-[7'-(4""-fluorophenyl)-2'-methyl-5'-(1""-methylethyl)pyrazolo[1,5-a]pyrimidin-6'-yl]-3,5-dihydroxyhept-6-enoate]",53.9%,0.64,percent decrease of counts relative to control group [3]: 50%
CC(C)c1nc2cc(-c3ccco3)nn2c(-c2ccc(F)cc2)c1/C=C/C(O)CC(O)CC(=O)O (stereo not shown) [Compound I-5-7],,0.20,
Cc1cc2nc(C3CC3)c(/C=C/C(O)CC(O)CC(=O)O)c(-c3ccc(F)cc3)n2n1 (stereo not shown) [Compound I-5-4],57.1%,0.39,mortality at 168 h [4]: 0%
CC(C)c1nc2cc(-c3ccccc3)nn2c(-c2ccc(F)cc2)c1/C=C/C(O)CC(O)CC(=O)O (stereo not shown) [Compound I-5-3],66.3%,0.27,Relative activities by Test B-1 [1]: 26.0
CC(C)c1cc2nc(C3CC3)c(/C=C/C(O)CC(O)CC(=O)O)c(-c3ccc(F)cc3)n2n1 (stereo not shown) [Compound I-5-8],,0.09,
Cc1nn2c(-c3ccc(F)cc3)c(/C=C/C(O)CC(O)CC(=O)O)c(C3CC3)nc2c1-c1ccccc1 (stereo not shown) [Compound I-5-6],58%,0.75,mortality at 168 h [4]: 0%
"CCOC(=O)CC(O)CC(O)/C=C/c1c(C(C)C)nc2cc(C)nn2c1-c1ccc(F)cc1 (stereo not shown) [Compound I-1-1, Ethyl (E)-7-[7'-(4""-fluorophenyl)-2'-methyl-5'-(1""-methylethyl)pyrazolo[1,5-a]pyrimidin-6'-yl]-3,5-dihydroxyhept-6-enoate]",67.3%,,Relative activities by Test B-1 [1]: 17.8

# Source: US5055472A, “Pyrazolopyrimidine type mevalonolactones” (Nissan Chemical Industries, Ltd., priority 1988, dated 1991)
